Four compounds from ChEMBL document CHEMBL5728637, “Pyrazolopyrimidine derivatives, preparation method thereof, and pharmaceutical composition for use in preventing or treating cancer, autoimmune disease and brain disease containing the same as an active ingredient” (2021) can be followed below.

Each structure is given as a SMILES string.

Sequence of Tyrosine-protein kinase BTK (Q06187 whole entry): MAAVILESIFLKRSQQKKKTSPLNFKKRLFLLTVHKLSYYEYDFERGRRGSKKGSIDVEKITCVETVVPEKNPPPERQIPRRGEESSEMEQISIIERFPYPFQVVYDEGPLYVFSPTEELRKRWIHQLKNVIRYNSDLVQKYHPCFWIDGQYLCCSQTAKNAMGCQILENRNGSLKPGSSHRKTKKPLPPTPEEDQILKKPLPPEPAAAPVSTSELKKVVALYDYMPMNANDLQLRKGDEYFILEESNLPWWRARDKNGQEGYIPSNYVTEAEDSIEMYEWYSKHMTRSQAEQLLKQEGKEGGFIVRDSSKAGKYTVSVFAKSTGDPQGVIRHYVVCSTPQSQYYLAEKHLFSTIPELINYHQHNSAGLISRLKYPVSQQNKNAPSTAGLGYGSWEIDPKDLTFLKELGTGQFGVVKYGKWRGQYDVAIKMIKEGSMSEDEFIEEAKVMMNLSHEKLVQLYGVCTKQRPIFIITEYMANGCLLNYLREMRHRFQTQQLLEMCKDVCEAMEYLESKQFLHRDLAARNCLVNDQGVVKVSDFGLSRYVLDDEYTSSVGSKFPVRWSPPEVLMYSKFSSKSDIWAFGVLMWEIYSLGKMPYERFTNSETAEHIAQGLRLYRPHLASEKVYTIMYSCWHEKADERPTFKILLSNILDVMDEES

The test has as its target Tyrosine-protein kinase BTK (Homo sapiens, UniProt Q06187). Put plainly: Inhibitory Assay: BTK enzyme evaluation with each compound of examples of the invention was performed by using BTK enzyme inhibition diagnosis kit (Cisbio, Codolet, France). ATP (adenosine triphosphate), BTK, peptide (biotin-Aca-[…]-NH2) and each compound of examples of the invention were mixed, followed by reaction for 30 minutes. Then, EDTA (ethylenediaminetetraacetic acid) was added thereto in order to terminate the reaction. At this time, the EDTA solution contained curopium-containing antibody (antiphosphoresidue antibody) and straptavidin-XL665 (SA-XL665, Cisbio). After incubation for 1 hour, fluorescence was measured. The emission values of 665 nm and 620 nm excited at 337 nm were measured with Envision reader.
`Cc1cccc(C)c1Nc1nn(C)c2nc(Nc3ccc4c(c3)CNCC4)ncc12` returned a half-maximal inhibitory concentration (IC50) of 0.6 nM.

Compound `Cc1ccc(NC(=O)Nc2cccc(C(F)(F)F)c2)cc1Nc1nn(C)c2nc(Nc3ccc4c(c3)CNCC4)ncc12` came in with a concentration for half-maximal inhibition (IC50) of 26.7 nM.

`Cn1nc(Nc2c(Cl)cccc2Cl)c2cnc(Nc3ccc4c(c3)CCNC4)nc21` returned an IC50 of 0.67 nM.

On to `Cc1cccc(C)c1Nc1n[nH]c2nc(Nc3ccc4c(c3)CNCC4)ncc12`, for which the IC50 was determined as 0.3 nM.
